Measurements from patent US6737383B1, “Herbicidal oxadiazolidines” (priority 1999, dated 2004).

Columns and labels:
pigweed = test: Test B pre/postemergence pigweed; assay type: in vivo, Amaranthus retroflexus
Outline: (§1)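 Herbicidal effect was estimated by eye on a ten-point control scale after plants spent twelve to sixteen days in a greenhouse following soil or foliar treatment. Foliar sprays targeted plants at one to four leaves; all doses were formulated in a non-phytotoxic solvent with surfactant.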

wild oat = test: Test B pre/postemergence wild oat; assay type: in vivo, Avena fatua
Outline: as §1

sugar beet = test: Test B pre/postemergence sugar beet; assay type: in vivo, Beta vulgaris
Outline: as §1

morningglory = test: Test B pre/postemergence morningglory; assay type: in vivo, Ipomoea hederacea
Outline: as §1

giant foxtail = test: Test B pre/postemergence giant foxtail; assay type: in vivo, Setaria faberii
Outline: as §1

wheat = test: Test B pre/postemergence wheat; assay type: in vivo, Triticum aestivum
Outline: as §1

velvetleaf = test: Test B pre/postemergence velvetleaf; assay type: in vivo, Abutilon theophrasti
Outline: as §1

surinam grass = test: Test B pre/postemergence surinam grass; assay type: in vivo, Brachiaria decumbens
Outline: as §1

crabgrass = test: Test B pre/postemergence crabgrass; assay type: in vivo, Digitaria sanguinalis
Outline: as §1

corn = test: Test B pre/postemergence corn; assay type: in vivo, Zea mays
Outline: as §1

bedstraw = test: Test B pre/postemergence bedstraw; assay type: in vivo, Galium aparine
Outline: as §1

cocklebur = test: Test B pre/postemergence cocklebur; assay type: in vivo, Xanthium strumarium
Outline: as §1

soybean = test: Test B pre/postemergence soybean; assay type: in vivo, Glycine max
Outline: as §1

rape = test: Test B pre/postemergence rape; assay type: in vivo, Brassica napus
Outline: as §1

purple nutsedge = test: Test B pre/postemergence purple nutsedge; assay type: in vivo, Cyperus rotundus
Outline: as §1

blackgrass = test: Test B pre/postemergence blackgrass; assay type: in vivo, Alopecurus myosuroides
Outline: as §1

[1] = Postemergence, Rate 31 g/ha, visual rating, scale 0 to 10 (0 no effect, 10 complete control)
[2] = Postemergence, Rate 125 g/ha, scale 0 to 10, 0 is no effect, 10 is complete control
[3] = Postemergence, Rate 250 g/ha, scale 0 to 10, 0 is no effect, 10 is complete control
[4] = Preemergence, Rate 62 g/ha, scale 0 to 10 (0 no effect, 10 complete control)
[5] = Preemergence, Rate 250 g/ha, scale of 0 to 10 where 0 is no effect and 10 is complete control
[6] = Rate 62 g/ha, Postemergence, scale of 0 to 10 where 0 is no effect and 10 is complete control
[7] = Preemergence, Rate 31 g/ha, visual rating, scale 0 to 10 (0 no effect, 10 complete control)

CC(C)N(C(=O)n1oc(=O)n(C2(C)CC2)c1=O)c1ccc(F)cc1 [Compound 362]
Redroot pigweed plant response rating (pigweed; [1]): 0 | Plant response rating, Redroot pigweed (pigweed; [2]): 4 | Plant response rating, Redroot pigweed (pigweed; [3]): 6 | Plant response rating, Redroot pigweed (pigweed; [4]): 8 | Redroot pigweed plant response rating (0 to 10 scale) (pigweed; Preemergence, Rate 125 g/ha): 10 | Redroot pigweed plant response rating (pigweed; [5]): 10 | Redroot pigweed plant response rating (pigweed; [6]): 2 | Wild oats plant response rating (wild oat; [1]): 0 | Plant response rating, Wild oats (wild oat; [2]): 6 | Plant response rating, Wild oats (wild oat; [3]): 6 | Plant response rating, Wild oats (wild oat; [4]): 7 | Wild oats plant response rating (0 to 10 scale) (wild oat; Preemergence, Rate 125 g/ha): 10 | Wild oats plant response rating (wild oat; [5]): 10 | Wild oats plant response rating (wild oat; [6]): 3 | Sugarbeets plant response rating (sugar beet; [1]): 0 | Plant response rating, Sugarbeets (sugar beet; [2]): 0 | Plant response rating, Sugarbeets (sugar beet; [3]): 2 | Plant response rating, Sugarbeets (sugar beet; [4]): 5 | Sugarbeets plant response rating (0 to 10 scale) (sugar beet; Preemergence, Rate 125 g/ha): 7 | Sugarbeets plant response rating (sugar beet; [5]): 8 | Sugarbeets plant response rating (sugar beet; [6]): 0 | Morningglory plant response rating (morningglory; [1]): 0 | Plant response rating, Morningglory (morningglory; [2]): 1 | Plant response rating, Morningglory (morningglory; [3]): 1 | Plant response rating, Morningglory (morningglory; [4]): 0 | Morningglory plant response rating (0 to 10 scale) (morningglory; Preemergence, Rate 125 g/ha): 4 | Morningglory plant response rating (morningglory; [5]): 6 | Morningglory plant response rating (morningglory; [6]): 1 | Giant foxtail plant response rating (giant foxtail; [1]): 5 | Plant response rating, Giant foxtail (giant foxtail; [2]): 8 | Plant response rating, Giant foxtail (giant foxtail; [3]): 9 | Plant response rating, Giant foxtail (giant foxtail; [4]): 10 | Giant foxtail plant response rating (0 to 10 scale) (giant foxtail; Preemergence, Rate 125 g/ha): 10 | Giant foxtail plant response rating (giant foxtail; [5]): 10 | Giant foxtail plant response rating (giant foxtail; [6]): 6 | Wheat plant response rating (wheat; [1]): 0 | Plant response rating, Wheat (wheat; [2]): 4 | Plant response rating, Wheat (wheat; [3]): 6 | Plant response rating, Wheat (wheat; [4]): 7 | Wheat plant response rating (0 to 10 scale) (wheat; Preemergence, Rate 125 g/ha): 8 | Wheat plant response rating (wheat; [5]): 8 | Wheat plant response rating (wheat; [6]): 2 | Velvetleaf plant response rating (velvetleaf; [1]): 0 | Plant response rating, Velvetleaf (velvetleaf; [2]): 4 | Plant response rating, Velvetleaf (velvetleaf; [3]): 7 | Plant response rating, Velvetleaf (velvetleaf; [4]): 4 | Velvetleaf plant response rating (0 to 10 scale) (velvetleaf; Preemergence, Rate 125 g/ha): 6 | Velvetleaf plant response rating (velvetleaf; [5]): 6 | Velvetleaf plant response rating (velvetleaf; [6]): 1 | B. signalgrass plant response rating (surinam grass; [1]): 1 | Plant response rating, B. signalgrass (surinam grass; [2]): 5 | Plant response rating, B. signalgrass (surinam grass; [3]): 7 | B. signalgrass plant response rating (surinam grass; [7]): 2 | Plant response rating, B. signalgrass (surinam grass; [4]): 4 | B. signalgrass plant response rating (0 to 10 scale, 0 is no effect, 10 is complete control) (surinam grass; Preemergence, Rate 125 g/ha): 6 | B. signalgrass plant response rating (surinam grass; [5]): 7 | B. signalgrass plant response rating (surinam grass; [6]): 2 | Crabgrass plant response rating (crabgrass; [1]): 3 | Plant response rating, Crabgrass (crabgrass; [2]): 6 | Plant response rating, Crabgrass (crabgrass; [3]): 6 | Plant response rating, Crabgrass (crabgrass; [4]): 5 | Crabgrass plant response rating (0 to 10 scale) (crabgrass; Preemergence, Rate 125 g/ha): 8 | Crabgrass plant response rating (crabgrass; [5]): 8 | Crabgrass plant response rating (crabgrass; [6]): 3 | Corn plant response rating (corn; [1]): 0 | Plant response rating, Corn (corn; [2]): 0 | Plant response rating, Corn (corn; [3]): 0 | Corn plant response rating (corn; [7]): 0 | Plant response rating, Corn (corn; [4]): 0 | Corn plant response rating (0 to 10 scale) (corn; Preemergence, Rate 125 g/ha): 3 | Corn plant response rating (corn; [5]): 9 | Corn plant response rating (corn; [6]): 0 | Bedstraw plant response rating (bedstraw; [1]): 5 | Plant response rating, Bedstraw (bedstraw; [2]): 9 | Plant response rating, Bedstraw (bedstraw; [3]): 9 | Bedstraw plant response rating (bedstraw; [7]): 8 | Plant response rating, Bedstraw (bedstraw; [4]): 9 | Bedstraw plant response rating (0 to 10 scale) (bedstraw; Preemergence, Rate 125 g/ha): 9 | Bedstraw plant response rating (bedstraw; [5]): 10 | Bedstraw plant response rating (bedstraw; [6]): 5 | Cocklebur plant response rating (cocklebur; [1]): 0 | Plant response rating, Cocklebur (cocklebur; [2]): 0 | Cocklebur plant response rating (cocklebur; [7]): 0 | Plant response rating, Cocklebur (cocklebur; [4]): 0 | Cocklebur plant response rating (0 to 10 scale) (cocklebur; Preemergence, Rate 125 g/ha): 0 | Cocklebur plant response rating (cocklebur; [5]): 0 | Cocklebur plant response rating (cocklebur; [6]): 0 | Soybean plant response rating (soybean; [1]): 4 | Plant response rating, Soybean (soybean; [2]): 5 | Plant response rating, Soybean (soybean; [3]): 6 | Plant response rating, Soybean (soybean; [4]): 0 | Soybean plant response rating (0 to 10 scale) (soybean; Preemergence, Rate 125 g/ha): 1 | Soybean plant response rating (soybean; [5]): 6 | Soybean plant response rating (soybean; [6]): 4 | Rape plant response rating (rape; [1]): 0 | Plant response rating, Rape (rape; [2]): 0 | Plant response rating, Rape (rape; [3]): 0 | Plant response rating, Rape (rape; [4]): 0 | Rape plant response rating (0 to 10 scale) (rape; Preemergence, Rate 125 g/ha): 3 | Rape plant response rating (rape; [5]): 6 | Rape plant response rating (rape; [6]): 0 | Nutsedge plant response rating (purple nutsedge; [1]): 0 | Plant response rating, Nutsedge (purple nutsedge; [2]): 0 | Plant response rating, Nutsedge (purple nutsedge; [3]): 0 | Plant response rating, Nutsedge (purple nutsedge; [4]): 0 | Nutsedge plant response rating (0 to 10 scale) (purple nutsedge; Preemergence, Rate 125 g/ha): 0 | Nutsedge plant response rating (purple nutsedge; [5]): 3 | Nutsedge plant response rating (purple nutsedge; [6]): 0 | Blackgrass plant response rating (blackgrass; [1]): 8 | Plant response rating, Blackgrass (blackgrass; [2]): 8 | Plant response rating, Blackgrass (blackgrass; [3]): 8 | Blackgrass plant response rating (blackgrass; [7]): 8 | Plant response rating, Blackgrass (blackgrass; [4]): 9 | Blackgrass plant response rating (0 to 10 scale) (blackgrass; Preemergence, Rate 125 g/ha): 10 | Blackgrass plant response rating (blackgrass; [5]): 10 | Blackgrass plant response rating (blackgrass; [6]): 8
